Columns and labels:
Streptococcus mutans = test: Killing of Streptococcus mutans by lactoferrin variants and peptide; assay type: cell-based; details: synthetic peptide
Source text: Caries is the single most common chronic childhood disease, five times more common than asthma. Over 70% of children […] have cavities. Over 108 million Americans lack dental health insurance so that treatment of this infection is lacking. S. mutans is considered one of the microbes most associated with dental decay.
Others have shown that lactoferrin peptides have antimicrobial activity, but no one to date has shown that the antibacterial activity derived from this peptide is useful against organisms in the oral cavity. We have also determined that the peptide will have limited usefulness in the oral cavity unless it is linked to something that will allow the peptide to bind to a surface in the oral cavity. A fusion peptide comprising lactoferrin and statherin was previously developed, wherein the lactoferrin portion provided antimicrobial activity while the statherin portion enabled the fusion peptide to adhere to the tooth surface. […]
Lactoferrin (Lf or LF) is a multifunctional protein that is found in mammary secretion, tears and saliva and in the gastrointestinal tract. […] Further we then determined that pure lactoferrin would have limited usefulness in the oral cavity unless it was linked to something that would allow it to bind to the oral cavity.

oral bacteria = details: bacteria grown in a broth media; cited from earlier work
bacteria = details: cited from earlier work
Candida = test: Two hour cell killing assay with supernatants from salivary-coated HAP or BECs; assay type: cell-based; details: sHAP incubated with peptide, washed, 1 hour release; 2 hour cell killing assay
Experimental: The procedures depicted in FIG. 5 were carried out with two LF fusion peptides (ST-LF and PAK-LF). Salivary-coated HAP was incubated with ST-LF peptide for 30 minutes and then washed with PBS and the supernatant tested. Fresh PBS was added, and the salivary-coated HAP was further incubated for 1 hour. The salivary-coated HAP was again rinsed and the supernatant solution was then tested for anti-candidal activity. The results are depicted in FIG. 6.

[1] = previously demonstrated; cited from earlier work

LF: FQWQRNMRKVR, lactoferrin peptide, lys form (listed as Homo sapiens)
killing of Streptococcus mutans (Streptococcus mutans): kills Streptococcus mutans

Penicillin
effective concentration against oral bacteria (oral bacteria): 1 µg/mL | adherence of bacteria to drug-treated, washed SHA (bacteria): no effect

ST-LF: DDDEEKFQWQRNMRKVR, statherin-lactoferrin fusion peptide of PCT/US08/51165 (ST-LF fusion peptide)
anti-candidal activity of supernatant from salivary-coated HAP (Candida): no inhibition of Candida | binding to tooth enamel surfaces [1]: bind to tooth enamel surfaces

From patent US9408889B2, “Fusion peptide designed to reduce plaque bacteria and yeast in the oral cavity” (RUTGERS, THE STATE UNIVERSITY OF NEW JERSEY, priority 2011, dated 2016)
